# Source: patent US20230296491A1, “DEVICE AND METHOD FOR DETERMINING A MECHANICAL PROPERTY OF A PARTICLE” (priority 2020, published 2023)
# How the values were obtained:
# [1] = tested on: NIH 3T3 fibroblast cells; assay: Hydrodynamic stretching deformability of chemically treated NIH 3T3 fibroblasts in the microfluidic system; assay type: cell-based; settings: flow rate 10 μl/min, 2 wt % PEO; for mean deformability in the first frame: first frame of the recording cycle (before stretching); for deformability (mean, aspect ratio a/b of the deformed cell): last (15th) frame, CB 150 μM for two hours, fixation 4% formaldehyde for 8 mins
# Procedure: On the other hand, an electrical sensing zone is introduced for on-demand single cell imaging. Three electrodes of 20 μm in width, 20 μm intervals are placed before the flow splitting junction, an input voltage of 0.5 V at 5 MHz is applied to the middle electrode and the differential current (Idifferential) is calculated from the two-sided electrodes. The differential configuration can cancel out electrical drifting caused by environmental fluctuation (i.e. flow, temperature, conductivity and pH) and achieve a higher signal-to-noise ratio. As the cell passes through the sensing region, it replaces the conductive medium and causes a change in the electrical current. By that, a pair of opposite peaks is transmitted into an impedance spectroscope. When the peak reaches the trigger level, a trigger signal is generated and fed to the camera. […] Next, for example at a flow rate of 10 μl/min, the camera starts to record 15 frames at a rate of 2,000 frames per second, with an exposure time of 50 μs. The first frame in a recording cycle is used to extract the cell diameter. At this point, the cell remains spherical because it starts to decelerate and is subject to minor stress. In one record cycle, the cell approaches the splitting junction, reaches the channel wall and migrates along the wall for a time span, ensuring the maximum strain is captured at the 15th frame (FIG. 5a). Its aspect ratio evaluates the cell deformability as
# where a and b are the length of the long axis and the short axis of the deformed cell, respectively.
# (§1) Cytochalasin B (Sigma-Aldrich) treated NIH 3T3 were prepared by incubating cells in 150 μM Cytochalasin B at 37° C. for two hours. After treatment with chemical reagents, cells were washed, centrifuged and resuspended in 2 wt % PEO solution. The viscoelastic solution was prepared by dissolving PEO (Mw=600 kDa, Sigma-Aldrich) powder into DPBS (Thermo Fisher Scientific) with a concentration of 2 wt %.
# Samples were continuously introduced into the microfluidic devices using a syringe pump (KD Scientific, Holliston, MA) at a range of flow rates. Simultaneously, the electrical current was received by an impedance spectroscope (HF2IS, Zurich Instruments) and analyzed by a real-time program to send out a trigger signal whenever there was a cell passing through the electrical sensing region. The triggering signal was received by a camera (Photron Inc., San Diego, CA, USA), which started to record 15 frames at a 2,000 frame rate with an exposure time of 50 μs (at a flow rate of 10 μl/min). After the event triggered imaging process was completed, the video was processed offline using a custom-built Python program. […]
# [2] = tested on: NIH 3T3 fibroblast cells; assay: Fluorescence imaging of actin in live NIH 3T3 cell before and after CB treatment; assay type: cell-based; settings: NIH 3T3, fluorescence images (actin)
# Procedure: (a) Representative fluorescence images (actin, red) of a live cell before (top) and after CB treatment (bottom).
# as §1
# To test the sensitivity of our system for cellular mechanical phenotyping, we compared the deformability of normal and Cytochalasin B (CB) treated two hours NIH 3T3 fibroblasts. […] In addition, we measured the deformability at a wide flow rate range of 1-30 μl/min. […] This flow rate was then applied to analyze the deformability difference. Furthermore, fixed cells were measured as control of undeformed cells.
SMILES,mean deformability in the first frame [1],"deformability (mean, aspect ratio a/b of the deformed cell) [1]",effect on intracellular F-actin (FIG. 8a) [2]
"C=C1[C@@H](C)[C@H]2[C@H](Cc3ccccc3)NC(=O)[C@]23OC(=O)/C=C/[C@H](O)CCC[C@@H](C)C/C=C/[C@H]3[C@@H]1O [CB, Cytochalasin B]",1.16±0.12,1.87±0.23,intracellular F-actin depolymerization
C=O [formaldehyde],1.12±0.06,1.29±0.11,
